In assay [1] the test system is catecholaminergic fibers projecting to pancreatic LN. More on the design: species or system tdTomatoTH-Cre mice.
Assay [2] concerns OVA-specific CD8+ TCR transgenic T-cells. Nature of the assay: Pancreatic auto-antigen cross-presentation: proliferation of adoptively transferred OVA-specific CD8+ T cells in RIP-OVA mice under PNES. The assay is classed as in vivo, RIP-OVA transgenic mice. The settings on record: PNES 450 μA, 10 Hz, 2 mn, 3 times/day; FIG. 3C.

This is an account of results in patent publication US11517754B2 (priority 2017, dated 2022).

In the case of `NC1=N[C@H](O)[C@H]2[C@H]3O[C@]4(O)O[C@@H]([C@@H](O)[C@@]2(N1)[C@@H]4O)[C@]3(O)CO` [tetrodotoxin], the “Field Action Potentials (FAP) peak amplitude after addition of TTX to the medium” value in assay [1] was “inhibited”.
Take `CC(C)NCC(O)COc1cccc2ccccc12` (centres unmarked) [propranolol]: the “Effect of PNES on auto-antigen cross-presentation (T cell proliferation relative to sham) in mice treated with propranolol” value in assay [2] is “β-AR-dependent”.
